{
  "source": "patent US5457182A",
  "about": "(Merck & Co., Inc., priority 1994, dated 1995)",
  "key": {"[1]": {"experiment": "Peptidyl-prolyl cis-trans isomerase (PPIase) activity", "assay_type": "biochemical", "procedure": "(§1) PPIase assays were performed as described (Fischer, G., et al., Nature, 337,476-478 (1989)) with the following changes: the peptide substrate used was N-succinyl-Ala-Leu-Pro-Phe-p-nitroanilide (BACHEM, California) at a final concentration of 72 μM and chymotrypsin (Sigma) was present in the assay at a concentration of 6 μM. The total reaction volume was 1.5 ml. The release of p-nitroanilide by chymotrypsin was measured by following the increase in absorbance at 405 nm on a Beckman DU68 spectrophotometer. After an initial rapid rise in absorbance due to hydrolysis of the trans peptide, the slow secondary increase in absorbance which reflects the cis-to-trans conversion of the peptide by the PPIase was measured at 3 sec intervals out to 1.5 min. The data were fitted to a simple first-order rate equation and the first-order rate constant, k (s^-1), calculated."}, "Heat stability": {"experiment": "Heat stability", "assay_type": "physicochemical"}, "calcineurin [2]": {"target": "calcineurin", "experiment": "Calcineurin phosphatase assay", "assay_type": "biochemical, bovine", "procedure": "For a side-by-side comparison, FKBP12 was also tested for its ability to inhibit calcineurin in the presence of drug.\nThe calcineurin phosphatase assay is a modified version of previous assays (Liu, J., et al., Cell, 66, 807-815 (1991); Manalan, A., et al., Proc. Natl. Acad. Sci. U.S.A., 80, 4291-4295 (1983)). Reaction mixtures ([…] contained: 40 mM Tris (pH 8), 100 mM NaCl, 6 mM Mg(OAc)2, 0.1 mM CaCl2, 0.1 mg/ml BSA, 0.5 mM dithiothreitol, 190 nM bovine brain calmodulin (Sigma), 3 nM bovine brain calcineurin (Sigma), and 40 μM [^33 P]RII peptide (Peptides International) (600 cpm/pmole). Reaction mixtures were pre-incubated for 30 min at 30° C. prior to addition of the labeled peptide. The reaction was initiated by addition of the peptide and the dephosphorylation reaction was allowed to proceed for 10 min at 30° C. The reaction was terminated by the addition of 0.5 ml of 5% trichloroacetic acid containing 100 mM sodium phosphate (stop buffer) and applied to a 0.5 ml Dowex 50W-X8, H^+ column. Free [^33 P]phosphate was eluted from the column with 0.5 ml of stop buffer followed by 0.5 ml of water."}, "calcineurin [3]": {"system": "calcineurin", "experiment": "FKBP.FK-506.CaN complex-formation assay (size-exclusion column, Western analysis)", "assay_type": "binding, bovine", "conditions": "Ca^2+", "procedure": "In the modified assay, samples were assayed by Western analysis using the anti-C-terminal peptide antibody in order to identify FKBP12 and FKBP12.6 in various chromatographic fractions.\nIn the first experiment, FKBP12 and FKBP12.6 were partially purified by preparative HPLC gel filtration chromatography on a Bio-Sil TSK-125 column. These partially purified FKBPs (containing both FKBP12 and FKBP12.6) are devoid of CaN which separates completely from them on this column. FKBP12 and FKBP12.6 co-elute at fractions 26 and 27 on the analytical sizing column (G2000SW) used in this experiment. […] Because this crude FKBP material also contains FKBP12.6, it can also be observed migrating slightly above FKBP12 in FIG. 4A.\nTo more carefully examine the requirements for FKBP12.6 complex formation with CaN, experiments were conducted using purified FKBP12.6.\nThe incubation buffer contained 20 mM Tris (pH 7.5), 100 mM NaCl, 6 mM MgCl2, 0.1 mM CaCl2, 0.1 mg/ml BSA, and 0.5 mM dithiothreitol. The incubation reaction was chromatographed on a Bio-Sil SEC400 HPLC column (Bio-Rad) at a flow rate of 1 ml/min and 1 min fractions were collected. The chromatography buffer was the same as the incubation buffer except that BSA was omitted. 30 μl of fractions 19-29 were subjected to electrophoresis on a 16% Novex Tris-Glycine gel and Western analysis was performed as described above."}, "[4]": {"experiment": "FK-506 specific binding activity of FKBP12.6 preparations (LH-20 assay)", "procedure": "However, FKBP12.6 is separated completely from authentic FKBP12 in Step II by chromatography on the CM-450M column. FKBP12.6 remains bound to the CM column while FKBP12 flows through during loading and washing. FKBP12.6 elutes from the column between 100 and 200 mM NaCl and Westerns of the gradient fractions using the anti-C-terminal peptide antibody confirm that there is no trace of FKBP12 present in the FKBP12.6 fractions. Because of the presence of FKBP12 in the S200, the recovery of FKBP12.6 may only be calculated from the CM-450M step forward using the standard LH-20 binding assay (Handschumacher, R., et al., Science. 226, 544-547 (1984)).\nStarting with approximately 60 grams of protein in the crude cytosolic brain extract, a typical yield after purification is about 50 μg of homogeneous FKBP12.6 (see Table I). […] FKBP12.6 was eluted from the resin with 4M guanidine-HCl and renatured by dialysis. […] This calculates to a 3,271-fold purification from the CM-450M step. Because the CM-450M step removes 94% of the protein from the crude extract, the overall s purification from the S200 is actually much greater. In calf brain cytosol then, FKBP12.6 is clearly much less abundant than FKBP12 is in calf thymus which was purified from that tissue 337-fold to homogeneity with almost the identical recovery (Siekierka, J., et al., Nature, 341, 755-757 (1989)). […] A second explanation for the lower than expected binding is that the LH-20 assay used to estimate binding is not an equilibrium binding assay and ligand off-rates will result in lower calculated specific binding activities. A third explanation is that all of the FKBP12.6 may not be […] properly and the […] protein may not bind effectively.\n(§2) The basic LH-20 binding assay was performed as described by Handschumacher,R., et al., Science, 226, 544-547 (1984) with the modifications noted in Siekierka, J., et al., Nature, 341, 755-757 (1989)."}, "[5]": {"experiment": "FK-506 specific binding activity of FKBP12.6 preparations (LH-20 assay)", "conditions": "Step II. CM-650M"}, "JURKAT cells": {"system": "JURKAT cells", "experiment": "IL-2 secretion in JURKAT cells stimulated with PMA and ionomycin", "assay_type": "cell-based, human"}, "FKBP12.6 [6]": {"target": "T1, FKBP12.6 (Bos taurus, UniProt P68107)", "T1 construct": "The FKBP12.6 protein has been isolated and purified from calf brain; from tissue; host or cells: calf brain cytosol", "T1 sequence (P68107 whole entry)": "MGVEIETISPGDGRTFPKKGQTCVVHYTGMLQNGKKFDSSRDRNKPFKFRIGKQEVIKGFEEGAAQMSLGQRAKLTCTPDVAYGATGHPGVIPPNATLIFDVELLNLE", "experiment": "[3H]dihydroFK-506 direct binding (LH-20 assay), Scatchard, FKBP12.6", "set-up": "species or system bovine (calf brain)", "conditions": "direct binding data, Scatchard format", "procedure": "as §2"}, "FKBP12": {"target": "FKBP12 (Homo sapiens, UniProt P62942)", "sequence (P62942 whole entry, species assumed)": "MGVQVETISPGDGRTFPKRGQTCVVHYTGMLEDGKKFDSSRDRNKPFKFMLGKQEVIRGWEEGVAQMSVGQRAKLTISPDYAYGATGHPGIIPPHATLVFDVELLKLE", "experiment": "[3H]dihydroFK-506 direct binding, FKBP12", "conditions": "unit inferred", "procedure": "as §2"}, "[7]": {"conditions": "literature; cited from earlier work"}, "FKBP12.6 [8]": {"target": "T1, FKBP12.6", "experiment": "Inhibition of PPIase activity of FKBP12.6", "assay_type": "biochemical, bovine (calf brain)", "procedure": "as §1"}, "[9]": {"conditions": "partially purified FKBP12.6 (Step VI)"}},
  "note": "pIC50, pKd: −log10 of the molar value. “Also recorded” adds a separate entry of the source.",
  "data": [
    {"molecule": "FKBP12.6: homogeneous cytosolic binding protein for FK-506, 10-12 kilodaltons, from calf brain; partial sequence SEQ ID NO: 1", "values": [
      {"measurement": "PPIase activity compared with FKBP12", "setting": "[1]; 25% purity of FKBP12.6 factored in", "value": "virtually equivalent to that of FKBP12"},
      {"measurement": "PPIase activity", "setting": "[1]; Example 4", "value": "low, but significant PPIase activity"},
      {"measurement": "PPIase activity", "setting": "[1]; material from step VI", "value": "did have PPIase activity"},
      {"measurement": "PPIase activity", "setting": "[1]; renatured material (Step VII)", "value": "did not have PPIase activity"},
      {"measurement": "stability to heating", "setting": "Heat stability; 56° C. for 30 minutes", "value": "not stable upon heating; also recorded: unstable to heating"},
      {"measurement": "effect of heat-treatment step", "setting": "Heat stability; cytosolic extract from calf brain", "value": "complete loss of FKBP12.6"},
      {"measurement": "pIC50", "setting": "calcineurin [2]; in presence of FK-506, CaN, CaM, Ca^2+, Mg^2+, read-out: IC50 for inhibition of CaN", "value": 7.80},
      {"measurement": "ability to block CaN phosphatase activity relative to FKBP12", "setting": "calcineurin [2]; in presence of FK-506, FIG. 5", "value": "almost equipotent to FKBP12"},
      {"measurement": "complex formation with CaN", "setting": "calcineurin [3]; partially purified FKBPs, CaM, Mg^2+ and FK-506", "value": "Most of the FKBP12.6 is shifted to a high molecular weight complex"},
      {"measurement": "complex formation with CaN", "setting": "calcineurin [3]; purified FKBP12.6, CaM, Mg^2+ and FK-506", "value": "all of the immunoreactive FKBP12.6 is shifted to fractions (20-22)"},
      {"measurement": "complex formation with CaN", "setting": "calcineurin [3]; purified FKBP12.6, CaM, Mg^2+, without FK-506", "value": "continues to elute at fractions 26 and 27"},
      {"measurement": "specific binding activity", "setting": "[4]; FKBP12.6 characteristic, summary", "value": "about 4.8 micrograms FK-506 per mg FKBP12.6 protein"},
      {"measurement": "FK-506 Binding (ng FK-506 bound/mg protein)", "setting": "[4]; Step III. TSK-125 HPLC", "value": "4.23 ng FK-506 bound/mg protein"},
      {"measurement": "FK-506 Binding (ng FK-506 bound/mg protein)", "setting": "[4]; Step IV. CM-3SW HPLC", "value": "13.3 ng FK-506 bound/mg protein"},
      {"measurement": "FK-506 Binding (ng FK-506 bound/mg protein)", "setting": "[4]; Step V. Phenyl-5PW HPLC", "value": "52.85 ng FK-506 bound/mg protein"},
      {"measurement": "FK-506 Binding (ng FK-506 bound/mg protein)", "setting": "[4]; Step VI. G2000SW HPLC, about 25% pure", "value": "1278.3 ng FK-506 bound/mg protein"},
      {"measurement": "FK-506 Binding (ng FK-506 bound/mg protein)", "setting": "[4]; Step VII. FK-506 Affinity", "value": "4874.0 ng FK-506 bound/mg protein"},
      {"measurement": "theoretical specific binding activity", "setting": "[4]; assuming mass of 12.6 kDa and 1 mole FK-506 per mole protein", "value": "64 mg of [^3 H]dihydroFK-506 per"},
      {"measurement": "specific binding activity", "setting": "[4]; purified FKBP12.6", "value": "4.8 μg of [^3 H]dihydroFK-506 per mg of protein"},
      {"measurement": "retention of binding to FK-506", "setting": "[4]; renatured material", "value": "retains binding to FK-506"},
      {"measurement": "FK-506 Binding (ng FK-506 bound/mg protein)", "setting": "[5]", "value": "1.49 ng FK-506 bound/mg protein"}
    ]},
    {"molecule": "[3H]CC([3H])C[C@@H]1/C=C(\\C)C[C@H](C)C[C@H](OC)[C@H]2O[C@@](O)(C(=O)C(=O)N3CCCC[C@H]3C(=O)O[C@H](/C(C)=C/[C@@H]3CC[C@@H](O)[C@H](OC)C3)[C@H](C)[C@@H](O)CC1=O)[C@H](C)C[C@@H]2OC", "note": "(stereo partly drawn) [[^3 H]dihydroFK-506]", "values": [
      {"measurement": "inhibition of IL-2 secretion", "setting": "JURKAT cells; JURKAT cells, PMA and ionomycin", "value": "potent inhibitor"},
      {"measurement": "potency relative to parent compound (times less potent)", "setting": "JURKAT cells; inhibition of IL-2 secretion, parent FK-506", "value": 5, "unit": "times"},
      {"measurement": "pKd", "setting": "FKBP12.6 [6]", "value": 9.26},
      {"measurement": "pKd", "setting": "FKBP12", "value": 9.40}
    ]},
    {"molecule": "C=CCC1C=C(C)CC(C)CC(OC)C2OC(O)(C(=O)C(=O)N3CCCCC3C(=O)OC(C(C)=CC3CCC(O)C(OC)C3)C(C)C(O)CC1=O)C(C)CC2OC", "note": "(stereo not drawn) [FK-506, 17-allyl-1,14-dihydroxy-12-[2'-(4\"-hydroxy-3\"-methoxycyclohexyl)-1'-methylvinyl]-23,25-dimethoxy-13,19,21,27-tetramethyl-11,28-dioxa-4-azatricyclo-[22.3.1.0^4,9]octacos-18-ene-2,3,10,16-tetraone]", "values": [
      {"measurement": "neurological toxicities", "setting": "[7]", "value": "neurological toxicities, which include drowsiness, lethargy, tremors, and aggressiveness"},
      {"measurement": "specific inhibition of FKBP12.6 PPIase activity", "setting": "FKBP12.6 [8]; Example 4", "value": "specifically inhibited by FK-506"},
      {"measurement": "inhibition of PPIase activity of FKBP12.6", "setting": "FKBP12.6 [8]; [9]", "value": "potent inhibitors"}
    ]},
    {"molecule": "CO[C@H]1C[C@@H]2CC[C@@H](C)[C@@](O)(O2)C(=O)C(=O)N2CCCC[C@H]2C(=O)O[C@H]([C@H](C)C[C@@H]2CC[C@@H](O)[C@H](OC)C2)CC(=O)[C@H](C)/C=C(\\C)[C@@H](O)[C@@H](OC)C(=O)[C@H](C)C[C@H](C)/C=C/C=C/C=C/1C", "note": "[rapamycin]", "values": [
      {"measurement": "inhibition of PPIase activity of FKBP12.6", "setting": "FKBP12.6 [8]; [9]", "value": "potent inhibitors"},
      {"measurement": "inhibition of PPIase activity relative to FK-506", "setting": "FKBP12.6 [8]; [9]", "value": "somewhat better inhibitor than FK-506"}
    ]}
  ]
}
